melting point	SMILES
124 to 126 °C	CC(C)CCSc1cc(C(=O)O)cc(N)c1-c1ccccc1
174 to 175 °C	CS(=O)(=O)Nc1cc2occ(C=Cc3ccccc3)c(=O)c2cc1Oc1ccccc1
207 °C	O=C(Nc1ccccc1S(=O)(=O)c1ccccc1)N[C@@H](Cc1ccc(NC(=O)c2ccc(Cl)nc2Cl)cc1)C(=O)O
102 to 104 °C	CN1CC(CCCl)Oc2ccc(Cl)cc2C1=S (stereo not given)
125 to 127 °C	CCc1cc(O)c(C(C)=O)c(OC2OC(COC(C)=O)C(OC(C)=O)C(OC(C)=O)C2OC(C)=O)c1 (stereo not given)
203 to 208 °C	O=C(O)c1ccc(OCC2CC(=O)N(c3ccc(OC4CCCCC4O)cc3)C2)cc1 (stereo not given)
101 to 103 °C	COc1cn(-c2ccc(OCc3ccccc3)cc2F)nc(C(C)=O)c1=O
158 to 160 °C	CN1CCC(N2CC=CC3=C2C(O)c2ccc(Cl)cc2SC3)CC1 (stereo not given)
92 to 93 °C	Cc1cc(-c2nc(COc3ccc(CCCn4ccnc4)cc3)co2)sc1Br
112 to 117 °C	O=C(O)[C@@H]1CCCC[C@H]1C(=O)CS (relative stereo)
139 to 140 °C	CC(C)(C)n1nnc(Cc2ccc(C(=O)O)cc2)n1
180 °C	COc1ccccc1OC1(Cl)C=NC(N2CCOCC2)=NC1Cl (stereo not given)
159 to 164 °C	C[C@]1(CN2CCC(c3ccccc3)CC2)Cn2cc([N+](=O)[O-])nc2O1
114 to 120 °C	NS(=O)(=O)c1cc(C(=O)O)cc(SCc2ccccc2)c1-c1ccccc1
156 to 157 °C	CCOc1ccc(C(=O)CCC(=O)Nc2cc(OCc3ccccc3)cc(-c3ccccc3)n2)cc1OCC
133 to 135 °C	COC(=O)CS(=O)(=O)CCC=C1SC=CS1
113 to 114 °C	CCCCC(=O)Nc1c(OC)cccc1[N+](=O)[O-]
213 to 215 °C	CCn1cc(C(=O)O)c(=O)c2cc(F)c(C(=O)CBr)c(F)c21
133 to 134 °C	COc1ccc(N2C3CCC2CC(=O)C3)cc1
104 to 105 °C	COc1cc(COc2cc(CCc3ccccn3)n(-c3ccccc3)n2)ccc1OCc1nc(-c2ccco2)oc1C
162 to 164 °C	COc1cc(OC)c(C(O)C(Cl)(Cl)Cl)cc1OC (stereo not given)
185 to 195 °C	CC(C)(C)c1cc(C#N)c(O)cn1

melting point	SMILES
180 to 185 °C	O=C1Nc2ccc(Br)cc2C2(CCCC2)O1
130 to 135 °C	O=C(CSC1c2ccccc2COc2ccc(OCc3ccc4ccc(Cl)cc4n3)cc21)NS(=O)(=O)c1ccccc1 (stereo not given)
99 °C	CN1C(=O)CC=C2c3ccc(Cl)cc3CCC21 (stereo not given)
164 to 166 °C	CCOc1ccc2ccccc2c1C(=O)N1CCC(NS(=O)(=O)c2cc(S(=O)(=O)c3ccccc3)ccc2C(C)C)CC1
165 to 167 °C	CC1(N)CN(C(=O)Nc2ccc(C(F)(F)F)cc2)N=C1c1ccc(Cl)cc1 (stereo not given)
109 to 110 °C	COC(=O)c1c(SCc2ccccc2)n[nH]c1C
156 to 157 °C	Cn1cc(CC(=O)O)c(OCc2ccc(OCc3csc(-c4ccccc4)n3)nc2)n1
170 °C	O=C(c1cnc2ccccc2c1)C1CCN(C(=O)c2ccccc2)CC1
228 to 230 °C	CCOC(=O)C(=CNc1ncnc2ccc([N+](=O)[O-])cc12)C(=O)OCC
131 to 132 °C	O=C1/C(=C(\NC2CC2)c2ccccc2)Sc2ccccc21
105 to 108 °C	COc1ccc(S(=O)(=O)c2ccc(OC)c(CC3CO3)c2)cc1CC1CO1 (stereo not given)
171 to 174 °C	Nc1ncc(-c2ccc(F)c3ccccc23)o1
254 °C	CC(C)NC(=O)N1CCc2[nH]cnc2C1C1CCCCC1 (stereo not given)
172 to 175 °C	CC(C)(C)c1nc2cc(N3CCCCC3)c(N)cc2s1
140 to 143 °C	COC(=O)c1cccc(OC)c1OS(=O)(=O)NC(=O)Nc1nc(C)cc(Cl)n1
82.4 °C	COC(=O)C1(Oc2cc(-n3c(=O)cc(C(F)(F)F)n(C)c3=O)c(F)cc2Cl)CC=CNC1=O (stereo not given)
299 to 302 °C	Cc1cc2c(cc1C)N=C(c1ccc(-n3c(C)nc4cnccc43)cc1)CC(N)=N2
148 to 149 °C	Cc1ccc(C=Cc2ccc(N(c3ccccc3)c3ccc4c5c(cccc35)CC4)cc2)cc1
156 to 158 °C	COC(=O)Nc1cc(Cl)nc(NC(=O)OC)n1
59 °C	CCOc1ccc2c(c1)C(N)(c1ccccc1Cl)C(=O)N2Cc1ccc(C(=O)NC(C)(C)CN(CC)CC)cc1 (stereo not given)
83 to 86 °C	CC(=O)Oc1ccc(C(=O)Nc2cccc(OCc3cncc4ccccc34)c2)cc1C(C)(C)C
71 to 73 °C	COc1cccc(-c2cn3cccc(C=O)c3n2)c1

melting point	SMILES
139 to 141 °C	NCC(c1cccc(OCc2ccccc2)c1)C1CCCCC1O (mixture of isomers)
132 °C	O=C(c1ccc(Cl)c([N+](=O)[O-])c1)c1cc2ccccc2o1
171 to 173 °C	COc1ccc(S(=O)(=O)N2c3ccccc3-c3ccccc3C2C)cc1C (stereo not given)
> 270 °C	CCn1c(=O)c2[nH]c(/C=C/c3ccc(F)cc3)nc2n(CC)c1=O
63 to 64 °C	CCOC(=O)C(Cc1ccc(OCc2ccccc2)cc1)Oc1ccc(Cl)cc1 (stereo not given)
282 to 283 °C	COc1ccccc1-c1ncc(-c2nnn[nH]2)c(=O)[nH]1
138 °C	Cc1ccc(S(=O)(=O)OC[C@H]2COc3ccc([N+](=O)[O-])cc3O2)cc1
295 to 297 °C	O=c1[nH]c2cc(I)ccc2n(CP(=O)(O)O)c1=O
149 to 150 °C	CC(C)(C)c1ccc(/C=C/C(=O)Nc2ccc3occc3c2)cc1
167 to 168 °C	Cc1nnc(-c2ccc3occ(-c4ccc(C(=O)N5CCOCC5)c(F)c4)c3c2)o1
115 to 120 °C	OCC(O)CSSc1nc2ccccc2s1 (stereo not given)
66 to 67 °C	COCOc1ccc(C=O)c(Cl)c1OCc1ccccc1
282 °C	CC(C)(C)Oc1ccc(O)c(C(=O)O)c1
81 to 82 °C	CCOC(=O)CCc1ccc2oc(Cc3ccc4ccccc4c3)nc2c1
208 to 209 °C	CCOC(=O)n1nc(-c2cc(C(C)(C)C)c(O)c(C(C)(C)C)c2)c2ccc(C)nc21
225 to 235 °C	CN1CCN(CC/C=C/c2ccc3c(Nc4ccc(Sc5nccn5C)c(Cl)c4)c(C#N)cnc3c2)CC1
114 to 116 °C	CCC(C)(C)Nc1c(N(Cc2ccc(Cl)cc2Cl)C(C)=O)c(=O)c1=O
216 to 220 °C	CSc1ccc(-c2c(Cl)ncn2-c2ccc(S(C)(=O)=O)cc2)cc1
200 to 202 °C	CN(C)c1cc(CC(C#N)=CNc2ccccc2)cc(N(C)C)c1N1CCCCC1
138 to 142 °C	Fc1ccc(C(c2ccc(F)cc2)N2CCN(CC=C3CCc4ccccc43)CC2)cc1

SMILES	melting point
Cc1ccccc1OC1CCN(CCc2c[nH]c3ccccc23)CC1	88 to 90 °C
CSc1c[nH]nc1C1CN2CCC1CC2 (stereo not given)	145 to 147 °C
CN1CCSc2c(C(=O)NC3CN4CCC3CC4)cc(Cl)cc21 (stereo not given)	195 to 196 °C
CCOC(=O)CCCn1cc(C(=O)c2ccc(OCc3ccc(C)cc3)c(O)c2)c2ccccc21	125 to 127 °C
O=C(NCCO[N+](=O)[O-])c1ccsc1	100 to 102 °C
CC1(CBr)SC2C(NC(=O)Cc3ccccc3)C(=O)N2C1C(=O)OCC(Cl)(Cl)Cl (stereo not given)	90 to 93 °C

Source: a melting point compilation (Tetko et al.; mined from patent text by program, amines drawn as free bases though some values may be those of a salt)
